Data published in US20110060044A1, “ALIPHATIC ACID-CONTAINING N-HALOGENATED AMINO ACID FORMULATIONS” (ALCON RESEARCH, LTD., priority 2007, published 2011).
“Also recorded” adds a separate entry of the source.

What was measured:
C. albicans = assay: Antimicrobial activity (time-kill viability) evaluation with C. albicans; type: cell-based; conditions: measured by viable cells per mL, Table 2 / FIG. 2
Protocol: (§1) The antimicrobial activity of the formulations according to embodiments of the present invention were evaluated by a standard microbiological analysis. The results of this evaluation are summarized in Tables 1 and 2 below and are shown graphically in FIGS. 1 and 2. For the evaluation, bacterial and fungal isolates were grown overnight on appropriate agar media as source of fresh cells. A suspension of these fresh cells was prepared in saline at approximately 1×10^8 cfu/mL. These suspensions were added directly to the test agents (various solutions of sodium 2,2-dimethyl-N,N-dichlorotaurine and control solutions). The initial concentration of cells in the test agent solutions was approximately 1×10^6 cfu/mL. The exposure of microorganisms to the test agent was conducted at room temperature for up to 60 minutes. At selected times, an aliquot was withdrawn and diluted into phosphate buffered saline at 4° C. Viability was determined following serial dilution and filtration onto Milliflex cassettes.

S. aureus = assay: Antimicrobial activity (time-kill viability) evaluation with S. aureus; type: cell-based; conditions: measured by viable cells per mL, Table 1 / FIG. 1
Protocol: as §1, with “The results of this evaluation are summarized in Tables 1 and 2 below and are shown graphically in FIGS. 1 and 2.” left out

SMILES: CC(C)(CS(=O)(=O)O)N(Cl)Cl [2,2-dimethyl-N,N-dichlorotaurine]
- anti-infective (antimicrobial) activity when the formulation contained sodium acetate (C. albicans): dramatically improved; also recorded: increased
- anti-infective (antimicrobial) activity when the formulation contained sodium acetate (S. aureus): dramatically improved; also recorded: increased
